This passage reports TGI and GI50 results from PubChem BioAssay (NCI).

Some test systems named below: T-47D breast; A498 renal; UO-31 renal; NCI-H226 lung; SK-MEL-5 melanoma; ACHN renal; OVCAR-3 ovarian; TK-10 renal; LOX IMVI melanoma; SR leukemia.
Common to all, as to test: DTP human tumour cell line panel, 48 h

Where “and” joins values, the source holds several entries; their conditions need not be identical. Equal values may be shown once.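 Interpolation was linear, between the two tested concentrations surrounding the appropriate level; five concentrations were tested over 48 hours in 96-well plates. Abbreviation: GI50, concentration required for 50% inhibition of growth. At the TGI there is no net growth.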

What is called TGI is the concentration at which net growth stops. Low readings indicate more potent growth arrest, high ones less potent growth arrest. As a reminder, the GI50 is the concentration at which growth is held to half of that of the control.

For `O=C(O)c1ccc(S(=O)(=O)N=Nc2c(O)[nH]c3ccccc23)cc1`, the TGI with T-47D breast, with A498 renal, with UO-31 renal, in the assay on NCI-H226 lung, with SK-MEL-5 melanoma and with ACHN renal was more than 100 µM throughout. The total growth inhibition concentration (TGI) in the assay on OVCAR-3 ovarian, in the assay with TK-10 renal, in the assay on LOX IMVI melanoma and in the assay on SR leukemia was more than 100 µM in each case.
For `COc1cc(-c2nn(C(=O)NS(=O)(=O)c3ccc(C)cc3)cc2-c2ccncc2)ccc1Cl`, the GI50 in the assay on T-47D breast is 6.34 µM; in the assay with A498 renal it was 6.98 µM; in the assay on UO-31 renal, 3740 nM; in the assay on NCI-H226 lung, 2.88 µM; in the assay with SK-MEL-5 melanoma it was 4.58 µM; in the assay with ACHN renal, 3.48 µM. Besides, the GI50 in the assay with OVCAR-3 ovarian is 25.2 µM; in the assay with TK-10 renal, 4.9 µM; with LOX IMVI melanoma, 3540 nM; in the assay on SR leukemia, 5100 nM. Further, the TGI with T-47D breast turned out to be 31.2 µM; with A498 renal it was 39.6 µM; in the assay on UO-31 renal, 16 µM; with NCI-H226 lung, 14.8 µM; in the assay with SK-MEL-5 melanoma it was 17.1 µM; with ACHN renal it was 36.1 µM. In addition, the total growth inhibition concentration (TGI) in the assay with OVCAR-3 ovarian is more than 100 µM; in the assay on TK-10 renal it was 19.8 µM; in the assay on LOX IMVI melanoma, 18.1 µM; in the assay with SR leukemia it was 40.9 µM.
With `COC(=O)c1c2c(c(C)[n+]([O-])c1C)C(=O)C(NCc1cccc(OC)c1)=CC2=O`, the GI50 with T-47D breast is 2.23 µM; with A498 renal, 1.79 µM; in the assay with UO-31 renal it was 2270 nM; with NCI-H226 lung, 3.32 µM; with SK-MEL-5 melanoma it was 1.2 µM; with ACHN renal it was 2.84 µM. Further, the GI50 is 0.512 µM in the assay on OVCAR-3 ovarian, 4.55 µM in the assay with TK-10 renal, 2360 nM in the assay on LOX IMVI melanoma and 2360 nM with SR leukemia. Moreover, the total growth inhibition concentration (TGI) in the assay with T-47D breast is 5.47 µM; in the assay on A498 renal, 5.3 µM; in the assay on UO-31 renal, 9.25 µM; in the assay with NCI-H226 lung, 13 µM; with SK-MEL-5 melanoma, 2.47 µM; in the assay on ACHN renal, 10.2 µM. Moreover, the TGI in the assay with OVCAR-3 ovarian is 3.21 µM; in the assay on TK-10 renal, 22.7 µM; in the assay with LOX IMVI melanoma, 6.86 µM; in the assay with SR leukemia, more than 100 µM.
Consider `COC(=O)[C@@H](Cc1c[nH]c2ccccc12)NC(=O)/C=C/c1ccccc1`, for which the GI50 is 8.41 µM with T-47D breast; 0.511 µM in the assay with A498 renal; 3680 nM with UO-31 renal; 6.06 µM in the assay with NCI-H226 lung; 3.14 µM in the assay with SK-MEL-5 melanoma; 4.08 µM with ACHN renal. The GI50 in the assay on OVCAR-3 ovarian is 2.83 µM; with TK-10 renal, 17.9 µM; in the assay with LOX IMVI melanoma, 3730 nM; with SR leukemia, 2980 nM. The TGI in the assay on T-47D breast was more than 100 µM; with A498 renal it was 6.75 µM; in the assay with UO-31 renal it was more than 100 µM; with NCI-H226 lung, more than 100 µM; in the assay on SK-MEL-5 melanoma it was 13.8 µM; in the assay with ACHN renal, more than 100 µM. The TGI in the assay with OVCAR-3 ovarian is 7.78 µM; in the assay with TK-10 renal, more than 100 µM; with LOX IMVI melanoma, more than 100 µM; with SR leukemia, 11.6 µM.
For the compound `COc1ccccc1CNC(=O)C1c2ccccc2C(=O)N(CC(C)C)C1c1cccs1` (stereo not given), the GI50 with T-47D breast is 20.2 µM; with A498 renal, 11.9 µM; in the assay with UO-31 renal it was 17700 nM; in the assay with NCI-H226 lung, 20.4 µM; in the assay with SK-MEL-5 melanoma, 14.7 µM; in the assay on ACHN renal, 24.8 µM. Moreover, the GI50 was 25.7 µM in the assay with OVCAR-3 ovarian, 26.3 µM with TK-10 renal, 27800 nM with LOX IMVI melanoma and 13500 nM with SR leukemia. The TGI was found to be 89.8 µM in the assay with T-47D breast; 51.5 µM in the assay with A498 renal; 72.5 µM with UO-31 renal; 72.4 µM in the assay with NCI-H226 lung; 28.9 µM in the assay on SK-MEL-5 melanoma; 90.3 µM in the assay with ACHN renal. For the same compound, the TGI in the assay with OVCAR-3 ovarian is 89.1 µM; with TK-10 renal it was 66.9 µM; in the assay with LOX IMVI melanoma, 89.1 µM; in the assay on SR leukemia it was 74.7 µM.
For `Cc1c2ncccc2nc2[nH]c3ccc(OCCN(C)C)cc3c12`, the GI50 with T-47D breast is 2.8 µM; in the assay with A498 renal, 5.18 µM; with UO-31 renal, 1840 nM; in the assay with NCI-H226 lung, 5.05 µM; in the assay on SK-MEL-5 melanoma, 9.77 µM; in the assay on ACHN renal, 0.75 µM. Moreover, the GI50 in the assay on OVCAR-3 ovarian was 3.62 µM; in the assay with TK-10 renal, 2.42 µM; in the assay with LOX IMVI melanoma it was 1540 nM; in the assay with SR leukemia it was 734 nM. Further, the TGI in the assay with T-47D breast was more than 100 µM; in the assay on A498 renal it was 20 µM; in the assay with UO-31 renal, 11.5 µM; in the assay on NCI-H226 lung, 21.5 µM; in the assay with SK-MEL-5 melanoma, 21.9 µM; with ACHN renal, 7.95 µM. For the same compound, the TGI stood at 19.7 µM with OVCAR-3 ovarian, 9.55 µM in the assay on TK-10 renal, 5.78 µM in the assay with LOX IMVI melanoma and 7.95 µM with SR leukemia.
Turning to `CCCCCCCCCCCCOC1C(C(COC2OC(C(O)CN3CCCCC3)C3OC(C)(C)OC23)NC(=O)Nc2ccccc2)OC2OC(C)(C)OC21` (stereo not given), the GI50 with T-47D breast was 14.5 µM; with A498 renal it was 16.9 µM; in the assay on UO-31 renal, 10300 nM; in the assay on NCI-H226 lung it was 17 µM; with SK-MEL-5 melanoma, 8.66 µM; in the assay on ACHN renal, 17.3 µM. The GI50 in the assay with OVCAR-3 ovarian is 14.7 µM; with TK-10 renal, 10.2 µM; in the assay with LOX IMVI melanoma it was 7870 nM; in the assay with SR leukemia it was 1910 nM. Further, the TGI in the assay on T-47D breast stood at 37.8 µM; with A498 renal, 32.7 µM; in the assay on UO-31 renal, 28.2 µM; in the assay with NCI-H226 lung, 38.1 µM; in the assay on SK-MEL-5 melanoma, 21.7 µM; in the assay with ACHN renal, 34.5 µM. Moreover, the TGI with OVCAR-3 ovarian was 34.6 µM; with TK-10 renal it was 26 µM; in the assay on LOX IMVI melanoma, 26.1 µM; in the assay with SR leukemia it was 4.3 µM.
Turning to `CC1CCC2C(C)C3C(CC4C5CC=C6CC(OC7OC(CO)C(O)C(OC8OC(CO)C(O)C(O)C8O)C7OC7OC(C)C(O)C(O)C7O)CCC6(C)C5CCC43C)N2C1` (stereo not given), the GI50 with T-47D breast, with A498 renal, in the assay with UO-31 renal, with NCI-H226 lung, with SK-MEL-5 melanoma and with ACHN renal was more than 2.5 µg/mL in each case. Besides, the GI50 in the assay with OVCAR-3 ovarian, with TK-10 renal, in the assay on LOX IMVI melanoma and in the assay on SR leukemia was more than 2.5 µg/mL in each case. In addition, the TGI in the assay with T-47D breast was 45 µM and > 2.5 µg/mL; in the assay with A498 renal it was 31.7 µM and > 2.5 µg/mL; in the assay on UO-31 renal, 14.5 µM and > 2.5 µg/mL; in the assay with NCI-H226 lung it was 44.3 µM and > 2.5 µg/mL; with SK-MEL-5 melanoma it was 33.3 µM and > 2.5 µg/mL; with ACHN renal, 20.3 µM and > 2.5 µg/mL. The TGI with OVCAR-3 ovarian was 31.7 µM and > 2.5 µg/mL; in the assay with TK-10 renal, 30.6 µM and > 2.5 µg/mL; in the assay with LOX IMVI melanoma it was 29.7 µM and > 2.5 µg/mL; with SR leukemia, 29 µM and > 2.5 µg/mL.
`O=C(O)C(Br)C(Br)c1ccccc1[N+](=O)[O-]` (stereo not given): the TGI was more than 100 µM in the assay on T-47D breast; more than 100 µM in the assay on A498 renal; 94.9 µM in the assay on UO-31 renal; more than 100 µM in the assay on NCI-H226 lung; more than 100 µM with SK-MEL-5 melanoma; more than 100 µM with ACHN renal. Moreover, the total growth inhibition concentration (TGI) with OVCAR-3 ovarian, in the assay with TK-10 renal, in the assay with LOX IMVI melanoma and in the assay on SR leukemia was more than 100 µM throughout.
In the case of `O=C(NCCN1CCOCC1)Nc1ccc(-c2cc3c(Nc4ccc(Oc5cccc(C(F)(F)F)c5)c(Cl)c4)ncnc3s2)cc1`, the GI50 in the assay on T-47D breast is 1.07 µM; in the assay with A498 renal it was 2.04 µM; with UO-31 renal it was 801 nM; in the assay on NCI-H226 lung it was 3.18 µM; in the assay on SK-MEL-5 melanoma, 0.916 µM; in the assay on ACHN renal it was 1.74 µM. The GI50 with OVCAR-3 ovarian is 2.34 µM; in the assay on TK-10 renal it was 2.78 µM; in the assay with LOX IMVI melanoma, 841 nM; with SR leukemia, 1470 nM. Moreover, the TGI in the assay with T-47D breast was determined as 3.21 µM; with A498 renal, 7.79 µM; in the assay with UO-31 renal it was 1.75 µM; in the assay on NCI-H226 lung, 17.1 µM; in the assay on SK-MEL-5 melanoma, 1.71 µM; in the assay on ACHN renal it was 6.06 µM. Further, the TGI with OVCAR-3 ovarian turned out to be 8.54 µM; in the assay with TK-10 renal, 9.08 µM; with LOX IMVI melanoma, 1.58 µM; in the assay with SR leukemia, 27.6 µM.
For the compound `CCOC(=O)N1C/C(=C/c2ccc(OC)cc2)C(=O)/C(=C/c2ccc(OC)cc2)C1`, the GI50 was 3.79 µM in the assay with T-47D breast; 3.13 µM in the assay on A498 renal; 1900 nM with UO-31 renal; 3.29 µM in the assay on NCI-H226 lung; 1.6 µM in the assay on SK-MEL-5 melanoma; 1.96 µM in the assay with ACHN renal. The GI50 in the assay on OVCAR-3 ovarian is 2.75 µM; in the assay with TK-10 renal, 2.91 µM; in the assay on LOX IMVI melanoma, 979 nM; in the assay with SR leukemia, 579 nM. For the same compound, the TGI was more than 100 µM in the assay with T-47D breast; more than 29 µM in the assay with A498 renal; 5.19 µM with UO-31 renal; 18.9 µM in the assay with NCI-H226 lung; 3.17 µM in the assay on SK-MEL-5 melanoma; 5.18 µM in the assay with ACHN renal. Also, the TGI in the assay with OVCAR-3 ovarian was 7.81 µM; in the assay with TK-10 renal it was 8.58 µM; in the assay with LOX IMVI melanoma, 2.84 µM; in the assay on SR leukemia, more than 32.7 µM.
